Columns and labels:
[1] = target: T1, human CK1Epsilon (Cos 7 cells cotransfected with mouse Per3-GFP) (Homo sapiens, UniProt P49674); test: CK1 WCA HCS nuclear translocation assay (CK1ε); format: cell-based; conditions: inhibition of mPer3-GFP translocation to the nucleus, overnight exposure, read-out: CK1 ε WCA EC50
T1 construct: His tag of the vector pcDNA4/hisA (only the vector name is printed); expressed in transfected cells; host or cells: Cos 7 cells
Experimental: (§1) CK1 WCA HCS Nuclear Translocation Assay.
(§2) Cos 7 cells were maintained at 37° C. in 5% CO2 in Dulbecco's Modified Eagle Medium (Gibco 11995) supplemented with 10% fetal bovine serum. Log-phase cells were dislodged with 5 min treatment of TrypLE Express (Gibco 12605) and viable cell count was determined with Cedex cell counter. Cells were diluted in DMEM medium to a density of 1.5e5 viable cells/mL in ⅔ of the final volume of final transfected cell mix. Cells were cotransfected with two plasmid DNAs, mouse Per3-GFP (green fluorescent protein) in pd2EGFP-N1 vector and human CKI in pcDNA4/hisA vector (for CK1Epsilon at a ratio of 1:5 respectively; for CK1δ at a ratio of 1:11 respectively), using Lipofectamine 2000 reagent (Invitrogen) according to the manufacturer's recommendations. The transfection mix contained approximately 0.83 μg/mL of DNA and 6 μL/mL of Lipofectamine 2000, in a total of ⅓ of the final transfection volume in Opti-MEM I medium (Invitrogen). After 20 min at rt, the cell mix was combined with the DNA transfection mix, per manufacturer instructions. 50 μL of the transfected cell suspension was dispensed per well by multidrop dispenser into Greiner 384-well Cellcoat (PDL) plates (Greiner #781946).
(§3) Compounds were solubilized in 100% DMSO, diluted with Opti-MEM I to a 4× concentration before addition to plated cells. After overnight exposure at 37° C. in a CO2 incubator, cells were fixed by the addition of 12% paraformaldehyde (Electron Microscopy Sciences, Hatfield, Pa.) in phosphate-buffered saline (PBS) with 20% sucrose to a final concentration of 4%, and then the cells were incubated for 30 min at rt. Fixative was removed, and cells were washed with PBS and then stained with 0.4 μg/ml Hoechst dye (Invitrogen) in blocking buffer containing 4% goat serum (Vector Labs s-1000) and 0.1% TritonX (Sigma T8787) for 1 h. Cells were washed again with PBS and stored at 4° C. in PBS or scanned immediately with the Cellomics ArrayScan VTI. CKIδ dependent nuclear localization of the GFP-tagged mPer3 protein was quantitated using the Cellomics ArrayScan VTI system utilizing the Cytoplasm to Nucleus translocation bioapplication to calculate the Nuclear-Cytoplasmic Intensity difference. Inhibitors of CK1 δ/ε were tested across a dose response curve to evaluate their ability to inhibit mPer3-GFP translocation to the nucleus. Cells with a total intensity of mPER3:GFP expression equal to or greater than 20,000 are included in analysis.

[2] = target: T2, human CK1δ (Cos 7 cells cotransfected with mouse Per3-GFP) (Homo sapiens, UniProt P48730); test: CK1 WCA HCS nuclear translocation assay (CK1δ); format: cell-based; conditions: inhibition of mPer3-GFP translocation to the nucleus, overnight exposure, read-out: CK1 δ WCA EC50
T2 construct: His tag of the vector pcDNA4/hisA (only the vector name is printed); expressed in transfected cells; host or cells: Cos 7 cells
T2 sequence (P48730 whole entry): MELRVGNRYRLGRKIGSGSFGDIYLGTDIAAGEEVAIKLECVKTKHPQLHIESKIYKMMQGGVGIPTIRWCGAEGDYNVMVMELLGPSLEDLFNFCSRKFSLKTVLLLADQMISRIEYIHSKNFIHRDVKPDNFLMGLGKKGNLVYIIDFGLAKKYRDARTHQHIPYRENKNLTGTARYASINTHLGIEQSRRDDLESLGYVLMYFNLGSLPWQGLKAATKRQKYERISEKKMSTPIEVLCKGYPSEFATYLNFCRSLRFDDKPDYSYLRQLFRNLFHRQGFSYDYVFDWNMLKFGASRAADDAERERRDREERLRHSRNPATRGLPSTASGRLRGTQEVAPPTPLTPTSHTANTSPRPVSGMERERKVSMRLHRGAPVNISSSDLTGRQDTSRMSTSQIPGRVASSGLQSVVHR
Experimental: as §1, §2, §3

CKIδ wild type = CKIδ wild type (Homo sapiens, UniProt P48730); test: CK1δ kinase assay (Kinase-Glo); format: biochemical; conditions: 10 μM ATP, 2 nM CKIδ, 85 min at 25° C.; read-out: CK1 δ IC50
CKIδ wild type, sequence (P48730 whole entry): as above
Experimental: (§4) The CK1δ kinase assay was performed in a 40 μl final volume in buffer containing 50 mM Tris, pH 7.5, 10 mM MgCl2, 1 mM dithiothreitol, 100 μg/mL BSA with 10 μM ATP, 2 nM CKIδ wild type, and 42 μM peptide substrate PLSRTLp[…] (Flotow et al., 1990) in the presence of 1 μl of CKIδ inhibitor or 4% DMSO. The reaction was incubated for 85 min at 25° C.; detection was carried out as described for the Kinase-Glo Assay (Promega). Luminescent output was measured on the Perkin Elmer Envision plate reader (PerkinElmer, Waltham, Mass.).

CKI ε wild type = CKI ε wild type (Homo sapiens, UniProt P49674); test: CK1ε kinase assay (Kinase-Glo); format: biochemical; conditions: 10 μM ATP, 2.5 nM CKI ε, 70 min at 25° C.; read-out: CK1 ε:IC50
CKI ε wild type, sequence (P49674 whole entry): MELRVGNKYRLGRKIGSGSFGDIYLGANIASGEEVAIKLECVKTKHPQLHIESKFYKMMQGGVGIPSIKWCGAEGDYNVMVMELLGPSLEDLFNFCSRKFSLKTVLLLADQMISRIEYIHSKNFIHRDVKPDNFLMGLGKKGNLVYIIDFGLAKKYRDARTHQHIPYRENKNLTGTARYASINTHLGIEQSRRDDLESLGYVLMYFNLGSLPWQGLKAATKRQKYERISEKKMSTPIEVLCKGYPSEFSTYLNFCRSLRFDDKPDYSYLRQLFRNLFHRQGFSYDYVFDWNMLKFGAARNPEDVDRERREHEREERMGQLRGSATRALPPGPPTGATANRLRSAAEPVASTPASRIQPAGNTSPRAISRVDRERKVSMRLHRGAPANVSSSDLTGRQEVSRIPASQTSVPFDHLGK
Experimental: as §4, with “The CK1ε” for “The CK1δ”, “a 40-μl” for “a 40 μl”, “ATP, 2.5” for “ATP, 2”, “nM CKI ε” for “nM CKIδ”, “of CKI ε” for “of CKIδ”, “for 70” for “for 85”

T1 sequence (P49674 whole entry): as above

EC50 [1] [nM] | EC50 [2] [nM] | IC50 (CKIδ wild type) [nM] | IC50 (CKI ε wild type) [nM] | SMILES
75.4 | 12.6 |  |  | Cn1cc(-c2ccnc3c2CN(C(=O)CC2CC2)C3)c(-c2ccc(F)cc2)n1 [Example 15, 6-(cyclopropylacetyl)-4-[3-(4-fluorophenyl)-1-methyl-1H-pyrazol-4-yl]-6,7-dihydro-5H-pyrrolo[3,4-b]pyridine]
217 | 47 |  |  | CC1CNCc2nccc(-c3cn(C)nc3-c3ccc(F)cc3)c2O1 (racemic) [Example 8, 9-[3-(4-fluorophenyl)-1-methyl-1H-pyrazol-4-yl]-2-methyl-2,3,4,5-tetrahydropyrido[2,3-f][1,4]oxazepine]
882 | 202 |  |  | Cn1cc(-c2ccnc3c2CN(S(=O)(=O)C2CC2)C3)c(-c2ccc(F)cc2)n1 [Example 12, 6-(cyclopropylsulfonyl)-4-[3-(4-fluorophenyl)-1-methyl-1H-pyrazol-4-yl]-6,7-dihydro-5H-pyrrolo[3,4-b]pyridine]
124 | 16.2 |  |  | CCC(=O)N1Cc2nccc(-c3cn(C)nc3-c3ccc(F)cc3)c2C1 [Example 13, 4-[3-(4-fluorophenyl)-1-methyl-1H-pyrazol-4-yl]-6-propionyl-6,7-dihydro-5H-pyrrolo[3,4-b]pyridine]
343 | 78.2 |  |  | CN1Cc2nccc(-c3cn(C)nc3-c3ccc(Cl)cc3)c2C1=O [Example 3, 4-[3-(4-chlorophenyl)-1-methyl-1H-pyrazol-4-yl]-6-methyl-6,7-dihydro-5H-pyrrolo[3,4-b]pyridin-5-one]
275 | 51.6 |  |  | Cn1cc(-c2ccnc3c2CN(C(=O)OCc2ccccc2)C3)c(-c2ccc(F)cc2)n1 [Example 22, benzyl 4-[3-(4-fluorophenyl)-1-methyl-1H-pyrazol-4-yl]-5,7-dihydro-6H-pyrrolo[3,4-b]pyridine-6-carboxylate]
150 | 40.2 |  |  | CC(=O)N1Cc2nccc(-c3cn(C)nc3-c3ccc(F)cc3)c2C1 [Example 14, 6-acetyl-4-[3-(4-fluorophenyl)-1-methyl-1H-pyrazol-4-yl]-6,7-dihydro-5H-pyrrolo[3,4-b]pyridine]
210 | 47.5 |  |  | COCC(=O)N1Cc2nccc(-c3cn(C)nc3-c3ccc(F)cc3)c2C1 [Example 17, 4-[3-(4-fluorophenyl)-1-methyl-1H-pyrazol-4-yl]-6-(methoxyacetyl)-6,7-dihydro-5H-pyrrolo[3,4-b]pyridine]
82.3 | 18.3 |  |  | Cn1cc(-c2ccnc3c2CN(C(=O)C2CC2)C3)c(-c2ccc(F)cc2)n1 [Example 21, 6-(cyclopropylcarbonyl)-4-[3-(4-fluorophenyl)-1-methyl-1H-pyrazol-4-yl]-6,7-dihydro-5H-pyrrolo[3,4-b]pyridine]
834 | 199 |  |  | CC1COc2c(-c3cn(C)nc3-c3ccc(F)cc3)ccnc2CN1 (stereo not shown) [Example 9, 9-[3-(4-fluorophenyl)-1-methyl-1H-pyrazol-4-yl]-3-methyl-2,3,4,5-tetrahydropyrido[2,3-f][1,4]oxazepine]
566 | 54.8 |  |  | Cn1cc(-c2ccnc3c2CN(C(=O)C2CCOCC2)C3)c(-c2ccc(F)cc2)n1 [Example 19, 4-[3-(4-fluorophenyl)-1-methyl-1H-pyrazol-4-yl]-6-(tetrahydro-2H-pyran-4-ylcarbonyl)-6,7-dihydro-5H-pyrrolo[3,4-b]pyridine]
 | 74.1 | 12.9 | 82.5 | Cn1cc(-c2ccnc3c2C(=O)N(CC2CC2)C3)c(-c2ccc(F)cc2)n1 [Example 37, 6-(cyclopropylmethyl)-4-[3-(4-fluorophenyl)-1-methyl-1H-pyrazol-4-yl]-6,7-dihydro-5H-pyrrolo[3,4-b]pyridin-5-one]
 | 60.7 | 19 | 127 | Cc1ccc(CN2Cc3nccc(-c4cn(C)nc4-c4ccc(F)cc4)c3C2=O)cn1 [Example 52, 4-[3-(4-fluorophenyl)-1-methyl-1H-pyrazol-4-yl]-6-[(6-methylpyridin-3-yl)methyl]-6,7-dihydro-5H-pyrrolo[3,4-b]pyridin-5-one]
 | 125 | 22.6 | 123 | Cn1cc(CN2Cc3nccc(-c4cn(C)nc4-c4ccc(F)cc4)c3C2=O)cn1 [Example 26, 4-[3-(4-fluorophenyl)-1-methyl-1H-pyrazol-4-yl]-6-[(1-methyl-1H-pyrazol-4-yl)methyl]-6,7-dihydro-5H-pyrrolo[3,4-b]pyridin-5-one]
 | 369 | 35.3 | 210 | Cn1cc(-c2ccnc3c2C(=O)N(CC2CCOC2)C3)c(-c2ccc(F)cc2)n1 (stereo not shown) [Example 27, 4-[3-(4-fluorophenyl)-1-methyl-1H-pyrazol-4-yl]-6-(tetrahydrofuran-3-ylmethyl)-6,7-dihydro-5H-pyrrolo[3,4-b]pyridin-5-one]
 | 217 | 26.2 | 131 | COCCCN1Cc2nccc(-c3cn(C)nc3-c3ccc(F)cc3)c2C1=O [Example 29, 4-[3-(4-fluorophenyl)-1-methyl-1H-pyrazol-4-yl]-6-(3-methoxypropyl)-6,7-dihydro-5H-pyrrolo[3,4-b]pyridin-5-one]
 | 71.4 | 18.6 | 92 | Cc1noc(CCN2Cc3nccc(-c4cn(C)nc4-c4ccc(F)cc4)c3C2=O)n1 [Example 38, 4-[3-(4-fluorophenyl)-1-methyl-1H-pyrazol-4-yl]-6-[2-(3-methyl-1,2,4-oxadiazol-5-yl)ethyl]-6,7-dihydro-5H-pyrrolo[3,4-b]pyridin-5-one]
 | 89.7 | > 160 | > 423 | CCC[C@@H](C)N1Cc2nccc(-c3cn(C)nc3-c3ccc(F)cc3)c2C1=O [Example 47, 4-[3-(4-fluorophenyl)-1-methyl-1H-pyrazol-4-yl]-6-[(1R)-1-methylbutyl]-6,7-dihydro-5H-pyrrolo[3,4-b]pyridin-5-one]
 | 104 | 23.3 | 130 | Cc1c(CN2Cc3nccc(-c4cn(C)nc4-c4ccc(F)cc4)c3C2=O)cnn1C [Example 35, 6-[(1,5-dimethyl-1H-pyrazol-4-yl)methyl]-4-[3-(4-fluorophenyl)-1-methyl-1H-pyrazol-4-yl]-6,7-dihydro-5H-pyrrolo[3,4-b]pyridin-5-one]
 | 167 | 19.5 | 87 | Cn1cc(-c2ccnc3c2C(=O)N([C@H]2[C@@H]4COC[C@@H]42)C3)c(-c2ccc(F)cc2)n1 [Example 45, 4-[3-(4-fluorophenyl)-1-methyl-1H-pyrazol-4-yl]-6-[(1R,5S,6r)-3-oxabicyclo[3.1.0]hex-6-yl]-6,7-dihydro-5H-pyrrolo[3,4-b]pyridin-5-one]

SMILES | EC50 [1] [nM] | EC50 [2] [nM] | IC50 (CKIδ wild type) [nM] | IC50 (CKI ε wild type) [nM]
Cn1cc(-c2ccnc3c2C(=O)N(CCOC(C)(C)C)C3)c(-c2ccc(F)cc2)n1 [Example 30, 6-(2-tert-butoxyethyl)-4-[3-(4-fluorophenyl)-1-methyl-1H-pyrazol-4-yl]-6,7-dihydro-5H-pyrrolo[3,4-b]pyridin-5-one] |  | 159 | 27.7 | 149

— US8536164B2, “Fused pyridine compounds as casein kinase inhibitors” (Pfizer Inc., priority 2010, dated 2013)
